In patent US8445678B2, “2-quinoxalinol salen compounds and uses thereof” (Auburn University, priority 2008, dated 2013):

Key:
[1] = Catalytic oxidation of diphenylmethane into benzophenone; conditions: yields by flash column chromatography and mass calculation
Method: The conversion of diphenylmethane into benzophenone was selected to test the activity of catalyst salquCu 1 and to develop optimized conditions, Based on previous reports with salphCu, three equivalents of H2O2 in CH3CN as solvent with 1% by molar of the catalyst salquCu 1 was heated to reflux temperature for 18 hours. Under these conditions, the isolated yield of benzophenone was only 27%. Six experimental factors were considered to optimizing this reaction: oxidant (FIG. 7), catalyst ratio (FIG. 8), reaction time (FIG. 9), oxidant ratio (FIG. 10), solvent, and types of catalyst (FIG. 11 and Table 10).
First, four oxidants were tested using CH3CN as solvent in each case, with 1% of catalyst 1 at reflux temperature for 18 hours. […] When tert-butylhydroperoxide in water was used as the oxidant, the yield of product, benzophenone, was around 80%. (FIG. 7) The use of tert-butylhydroperoxide in decane allows for a uniform or monophasic organic soluble catalyst system, and thus further improves the optimal yield. […]
The synthesis of the products depicted in Table 11 began with the combination of catalyst 1 (0.02 mmol, 15.2 mg) and 2.0 mmol of starting material (aryl methylene compound) dissolved in 2.0 mL acetonitrile with 1.0 mL tert-butylhydroperoxide decane solution (6.0 mmol). The reaction mixture was allowed to stir for 18 hours at 70° C. and monitored by TLC. […]

[2] = Stability of ligands, imines, intermediates and catalysts (temperature, air, moisture, solvents); format: physicochemical; conditions: exposure to air

Nc1cc2ncc(O)nc2cc1N [Intermediate 1e]
Yield (%) of benzophenone, optimized conditions with different salquCu catalysts [1]: 90% | stability in air / atmospheric conditions [2]: not stable and was found to decompose on exposure to air
